Reference: patent US20110160265A1, “METHOD OF TREATING MOTOR DISORDERS WITH ALPHA-2B ADRENERGIC RECEPTOR AGONISTS” (priority 2007, published 2011)

Assays:
[1] = system: nigrostriatal-lesioned rats; assay: Nigrostriatal-lesion-induced rotational behavior following amphetamine administration; assay type: in vivo; conditions: relative to Vehicle+Amphetamine, drug 2 amphetamine SC
Method: Table 4, below, indicates the changes in rotational behavior in nigrostriatal-lesioned rats treated with various alpha-2B receptor agonists and the psychostimulant amphetamine. Drug 1 was administered 15 minutes before amphetamine, and 10 minutes post-amphetamine, the animals were placed into the rotometer for 30 or 60 minutes. “% decrease rotations” indicates the percentage decrease in total rotations relative to the Vehicle+Amphetamine group. ^⋄ indicates significant difference (P<0.05) relative to Vehicle+Amphetamine treated animals. * indicates significant difference (P<0.05) relative to Vehicle+Vehicle treated animals.
Amphetamine-induced rotational behavior. Pre-Apomorphine-screened (rotated) rats (with lesions ≧95% DA cell loss) were purchased from Charles Rivers Laboratories. Animals were given ˜4 days to acclimate prior to testing. All animals weighted 250-300 g at the beginning of the study. Animals were treated with various combinations of vehicle or alpha-2B receptor agonist and amphetamine.
Vehicle or alpha-2B receptor agonist was administered (p.o.) 15 minutes before amphetamine (2 mg/kg s.c.). Rotational behavior was assessed 15 minutes post-amphetamine administration and was monitored for 60 minutes using a Rotometer system from San Diego Instruments (San Diego, Calif.).
(§1) For i.p. administration, the compounds are formulated in H2O with 0.5% DMSO and given in a volume of 1 ml/kg body weight by injecting into the intraperitoneal cavity. For p.o. administration, the compounds are formulated in H2O with 0.5% DMSO and given in a volume of 2 ml/kg body weight using a 25-gauge, 1.5 inch gavage needle that is slowly inserted through the esophagus into the stomach.

mice [2] = assay: Amphetamine-induced hyperlocomotion (open field); assay type: in vivo; conditions: drug 2 amphetamine SC
Method: Table 2, below, indicates the locomotor responses of mice treated with various combinations of alpha-2B receptor agonists and the psychostimulant amphetamine. Drug 1 was administered 30 minutes after the animal was placed in the open field. Drug 2 was administered subcutaneously (SC) at 45 minutes after the animal was placed in the open field (15 minutes after drug 1). AUC indicates the total amount of locomotor activity after administration of drug 2. “% decrease activity” indicates the percentage decrease in total activity relative to the Vehicle+Amphetamine group. ° indicates significant difference (P<0.05) relative to Vehicle+Amphetamine treated animals. * indicates significant difference (P<0.05) relative to Vehicle+Vehicle treated animals.
(§2) Amphetamine- or cocaine-induced hyperactivity. Mice were placed in an open field apparatus (FlexField, San Diego Instruments, San Diego, Calif.). After 30 minutes of habituation, they received a vehicle or haloperidol injection or injection of alpha-2B receptor agonist followed by an injection of amphetamine (2 mg/kg, s.c.) or cocaine (10 mg/kg, i.p.) at minute 45. Their activity levels were subsequently measured for another 1 hour post-injection. Total activity over each 5 minute bin (21 total bins) was added to establish activity curve over the 105 minute testing.
as §1

mice [3] = assay: Cocaine-induced hyperlocomotion (open field); assay type: in vivo; conditions: drug 2 cocaine SC; for % DECREASE ACTIVITY: relative to Vehicle+Cocaine
Method: Table 3, below, indicates the locomotor responses of mice treated with various combinations of alpha-2B receptor agonists and the psychostimulant cocaine. Drug 1 was administered 30 minutes after the animal was placed in the open field. Drug 2 was administered subcutaneously (SC) at 45 minutes after the animal was placed in the open field (15 minutes after drug 1). AUC indicates the total amount of locomotor activity after administration of drug 2. “% decrease activity” indicates the percentage decrease in total activity relative to the Vehicle+Cocaine group. ° indicates significant difference (P<0.05) relative to Vehicle+Cocaine treated animals. * indicates significant difference (P<0.05) relative to Vehicle+Vehicle treated animals.
as §2, §1

alpha-2A receptor = target: T1, alpha-2A receptor (Homo sapiens, UniProt P08913); assay: Alpha-2A receptor activity (efficacy relative to brimonidine); assay type: cell-based; conditions: in words; b7: lacks significant activity = less than 40% of the efficacy of brimonidine at alpha-2A
T1 sequence (P08913 1-465): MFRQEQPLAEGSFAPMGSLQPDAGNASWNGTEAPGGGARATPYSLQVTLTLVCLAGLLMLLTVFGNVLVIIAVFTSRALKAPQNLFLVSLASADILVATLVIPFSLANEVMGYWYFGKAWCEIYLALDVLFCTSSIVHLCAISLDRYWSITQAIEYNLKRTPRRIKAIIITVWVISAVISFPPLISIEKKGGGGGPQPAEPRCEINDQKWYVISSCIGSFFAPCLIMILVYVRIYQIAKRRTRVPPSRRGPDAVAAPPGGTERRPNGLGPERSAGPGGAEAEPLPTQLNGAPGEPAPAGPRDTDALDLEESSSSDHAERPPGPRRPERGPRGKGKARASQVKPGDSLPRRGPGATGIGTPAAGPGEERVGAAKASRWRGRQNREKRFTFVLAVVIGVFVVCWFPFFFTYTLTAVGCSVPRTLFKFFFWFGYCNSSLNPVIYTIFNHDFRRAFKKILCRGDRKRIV
Source text: The methods of the present invention use alpha-2 agonists lacking significant activity at the alpha-2A receptor subtype. An agonist lacks significant alpha-2A receptor activity if the agonist has less than 40% of the efficacy of brimonidine at the alpha-2A receptor subtype. Compounds of the invention include, therefore, alpha-2B receptor agonists lacking significant alpha-2A activity; alpha 2B/2C receptor agonists lacking significant alpha-2A activity; and alpha-2C receptor agonists lacking significant alpha-2A activity.
Efficacy, also known as intrinsic activity, is a measure of maximal receptor activation achieved by a compound and can be determined using any accepted assay of alpha-adrenergic receptor activation, such as a cAMP or Receptor Selection and Amplification Technology (RSAT). Efficacy is represented as a ratio or percentage of the maximal effect of the drug to the maximal effect of a standard agonist for each receptor subtype. Brimonidine, itself an alpha-2B receptor agonist (it is has 100% the efficacy of brimonidine at the alpha-2B adrenergic receptor), is used as the standard agonist for the alpha-2B adrenergic receptors.
Agonist activity can be characterized using any of a variety of routine assays, including, for example, Receptor Selection and Amplification Technology (RSAT) assays (Messier et al., Pharmacol. Toxicol. 76:308-11 (1995); cyclic AMP assays (Shimizu et al., J. Neurochem. 16:1609-1619 (1969)); and cytosensor microphysiometry assays (Neve et al., J. Biol. Chem. 267:25748-25753 (1992)). Such assays generally are performed using cells that naturally express only a single alpha-adrenergic receptor subtype, or using transfected cells expressing a single recombinant alpha-adrenergic receptor subtype. The adrenergic receptor can be a human receptor or homolog of a human receptor having a similar pharmacology.
The RSAT assay measures receptor-mediated loss of contact inhibition resulting in selective proliferation of receptor-containing cells in a mixed population of confluent cells. The increase in cell number is assessed with an appropriate detectable marker gene such as beta-galactosidase, if desired, in a high throughput or ultra high throughput assay format. Receptors that activate the G protein, Gq, elicit the proliferative response. Alpha-adrenergic receptors, which normally couple to Gi, activate the RSAT response when coexpressed with a hybrid Gq protein containing a Gi receptor recognition domain, designated Gq/i5. Conklin et al., Nature 363:274-6 (1993)).
As an example, an RSAT assay can be performed essentially as follows. NIH-3T3 cells are plated at a density of 2×10^6 cells in 15 cm dishes and maintained in Dulbecco's modified Eagle's medium supplemented with 10% calf serum. One day later, cells are cotransfected by calcium phosphate precipitation with mammalian expression plasmids encoding p-SV-β-galactosidase (5-10 μg), receptor (1-2 μg) and G protein (1-2 μg). Carrier DNA, for example 40 μg salmon sperm DNA, also can be included to increase transfection efficiency. Fresh media is added on the following day; one to two days later, cells are harvested and frozen in 50 assay aliquots. Transfected cells are thawed, and 100 μl of cells added to 100 μl aliquots of compound to be tested, with various concentrations assayed in triplicate, for example, in 96-well plates. Incubation continues for 72 to 96 hours at 37° C. After washing with phosphate-buffered saline, β-galactosidase activity is determined by adding 200 μl of chromogenic substrate (3.5 mM O-nitrophenyl-β-D-galactopyranoside/0.5% NP-40 in phosphate buffered saline), incubating overnight at 30° C., and measuring optical density at 420 nm. The absorbancy is a measure of enzyme activity, which depends on cell number and reflects receptor-mediated cell proliferation. The EC50 and maximal effect (i.e., efficacy) of each drug at each receptor is determined.

OCCNC(=S)NCc1cccc(Cl)c1F [Compound A]
% DECREASE ROTATIONS ([1]; drug 1 0.03 mg/kg PO): 65% ^⋄ * | % DECREASE ACTIVITY REL TO VEH + AMPH (mice [2]; drug 1 0.03 mg/kg IP): 55% ^⋄ | TOTAL ACTIVITY POST-AMPHETAMINE (AUC) (mice [2]; drug 1 0.03 mg/kg IP): 5524.8 ± 624.2 | TOTAL ACTIVITY POST-COCAINE (AUC) (mice [3]; drug 1 0.03 mg/kg PO): 8469 ± 935.01 | TOTAL ACTIVITY POST-COCAINE (AUC) (mice [3]; drug 1 0.1 mg/kg PO): 6457.67 ± 754.0 | TOTAL ACTIVITY POST-COCAINE (AUC) (mice [3]; drug 1 0.3 mg/kg PO): 3543 ± 648.02 | % DECREASE ACTIVITY (mice [3]; drug 1 0.03 mg/kg PO): 19% * ^ | % DECREASE ACTIVITY (mice [3]; drug 1 0.1 mg/kg PO): 38% ^⋄ * | % DECREASE ACTIVITY (mice [3]; drug 1 0.3 mg/kg PO): 66% ^⋄ | alpha-2A receptor activity (alpha-2A receptor): lack significant alpha-2A receptor activity

S=c1[nH]cc(CC2CC=CC2)[nH]1 [Compound D]
% DECREASE ROTATIONS ([1]; drug 1 0.1 mg/kg PO): 51% ^⋄ * | % DECREASE ROTATIONS ([1]; drug 1 1 mg/kg PO): 60% ^⋄ * | % DECREASE ACTIVITY REL TO VEH + AMPH (mice [2]; drug 1 0.01 mg/kg PO): 14% * | TOTAL ACTIVITY POST-AMPHETAMINE (AUC) (mice [2]; drug 1 0.01 mg/kg PO): 10664.0 ± 786.2 | % DECREASE ACTIVITY REL TO VEH + AMPH (mice [2]; drug 1 0.03 mg/kg PO): 51% ^⋄ | TOTAL ACTIVITY POST-AMPHETAMINE (AUC) (mice [2]; drug 1 0.03 mg/kg PO): 5987.5 ± 1369. | % DECREASE ACTIVITY REL TO VEH + AMPH (mice [2]; drug 1 0.1 mg/kg PO): 43% ^⋄ * | TOTAL ACTIVITY POST-AMPHETAMINE (AUC) (mice [2]; drug 1 0.1 mg/kg PO): 6992.5 ± 693.1 | % DECREASE ACTIVITY REL TO VEH + AMPH (mice [2]; drug 1 1 mg/kg PO): 62% ^⋄ | TOTAL ACTIVITY POST-AMPHETAMINE (AUC) (mice [2]; drug 1 1 mg/kg PO): 4650.0 ± 628.9 | alpha-2A receptor activity (alpha-2A receptor): lack significant alpha-2A receptor activity

Clc1cccc(CNC2=NCCN2)c1Cl [Compound F]
% DECREASE ACTIVITY REL TO VEH + AMPH (mice [2]; drug 1 0.03 mg/kg IP): 26% ^⋄ * | TOTAL ACTIVITY POST-AMPHETAMINE (AUC) (mice [2]; drug 1 0.03 mg/kg IP): 9933.0 ± 1898.7 | % DECREASE ACTIVITY REL TO VEH + AMPH (mice [2]; drug 1 0.3 mg/kg IP): 29% ^⋄ * | TOTAL ACTIVITY POST-AMPHETAMINE (AUC) (mice [2]; drug 1 0.3 mg/kg IP): 9442.3 ± 1306.7 | % DECREASE ACTIVITY REL TO VEH + AMPH (mice [2]; drug 1 1 mg/kg IP): 45% ^⋄ | TOTAL ACTIVITY POST-AMPHETAMINE (AUC) (mice [2]; drug 1 1 mg/kg IP): 7437.8 ± 1812.4 | % DECREASE ACTIVITY REL TO VEH + AMPH (mice [2]; drug 1 3 mg/kg IP): 62% ^⋄ | TOTAL ACTIVITY POST-AMPHETAMINE (AUC) (mice [2]; drug 1 3 mg/kg IP): 5169.0 ± 1481.4 | alpha-2A receptor activity (alpha-2A receptor): lack significant alpha-2A receptor activity
